What follows are substances tested on IgE antibodies from patients (assay: Epitope mapping (2) overlapping (10-amino-acid peptides) and (3) alanine scanning on peptide arrays). Settings: overlapping peptides with flanking sequence.
Format: binding, human
Method: On the basis of the sequences (SEQ ID NOs: 272-295 for vitellogenin-2 precursor, SEQ ID NOs: 296-303 for vitellogenin-3, SEQ ID NOs: 304-311 for apolipoprotein B precursor, and SEQ ID NOs: 312-318 for vitellogenin-1 or lipovitellin-1) of the peptides bound to an IgE antibody in serum in a patient-specific manner as described above in (A), a library of overlapping peptide fragments (length: 10 amino acids) was prepared using the sequences of the peptides and sequences in which sequences were added so as to flank each peptide in the amino acid sequences of allergen components (amino acid sequences of SEQ ID NO: 59, 106 or 262 for vitellogenin-2 precursor, SEQ ID NO: 2, 13 or 47 for vitellogenin-3, SEQ ID NO: 152, 237 or 251 for apolipoprotein B, and SEQ ID NO: 18 for vitellogenin-1 or lipovitellin-1) comprising the sequences of the peptide to carry out epitope mapping.
The peptides to be synthesized were shifted by one amino acid.
The library was prepared by the same procedure as described above in (A), and the presence or absence of binding of an IgE antibody present in the serum of a patient and a non-egg-allergic subject to each peptide fragment was measured by the same technique as described above. Amino acids at positions where the binding activity against IgE antibodies from patients were lost or decreased in the peptides shifted by one amino acid while binding activity against IgE antibodies from non-egg-allergic subjects arose were confirmed as amino acids adversely affecting the specificity of binding to IgE antibodies.
Chemiluminescence intensity in images obtained by measurement was converted into a numeric value in the same manner as in (A) using ImageQuant TL (GE Healthcare). Numeric values determined from images obtained as a result of using only anti-human IgE antibody-HRP antibody without carrying out the procedures (2) and (3) described above in the subsection titled (3) Spotting of cellulose-bound peptide solution were […] numeric values determined from images obtained from results about the serum of 6 patients. It was determined that a peptide having the resulting value larger than 0 had no binding activity against IgE antibodies when having less than 20% of values obtained using the sequences (amino acid sequences of SEQ ID NO: 59, 106 or 262 for vitellogenin-2, SEQ ID NO: 2, 13 or 47 for vitellogenin-3, SEQ ID NO: 152, 237 or 251 for apolipoprotein B, and SEQ ID NO: 18 for vitellogenin-1 or lipovitellin-1) serving as the basis of overlapping, had binding activity, albeit poor, against IgE antibodies when having 20% or more and less than 50% thereof, had binding activity, albeit somewhat poor, against IgE antibodies when having 50% or more and less than 70% thereof, had almost equivalent binding activity against IgE antibodies when having 70% or more and less than 90% thereof, and had equivalent or good binding activity against IgE antibodies and thus had remaining binding activity against IgE antibodies when having 90% or more thereof.
From the amino acid sequences identified above in (A), a library of peptide fragments in which N-terminal amino acids were substituted one by one by alanine according to a technique called alanine scanning (Non Patent Literature 1) was prepared by the same technique as described above. The presence or absence of binding of an IgE antibody present in the serum of a patient and a non-egg-allergic subject to each peptide fragment was measured by the same technique as described above. Amino acids at positions where the binding activity against IgE antibodies from patients were lost or decreased by the substitution by alanine while binding activity against IgE antibodies from non-egg-allergic subjects arose were confirmed as amino acids important for exertion of original antigenicity, or amino acids influencing exertion of original antigenicity.

| Substance | binding to IgE antibodies from patients, sequence comprising a region carboxy-terminally adjacent to the epitope | binding to IgE antibodies from patients, sequence comprising a region amino-terminally adjacent to the epitope |
| --- | --- | --- |
| SEQ ID NO: 401: sequence comprising a region carboxy-terminally adjacent to epitope 8 (LPTETPLVS; epitope) | binding to IgE antibodies from patients |  |
| SEQ ID NO: 402: sequence comprising a region carboxy-terminally adjacent to epitope 8 (LPTETPLVSA; epitope) | binding to IgE antibodies from patients |  |
| SEQ ID NO: 404: sequence comprising a region amino-terminally adjacent to epitope 9 (EVAFININKE; epitope) |  | binding to IgE antibodies from patients |
| SEQ ID NO: 409: sequence comprising a region amino-terminally adjacent to epitope 10 (LQQVMKTVVE; epitope) |  | binding to IgE antibodies from patients |
| SEQ ID NO: 422: sequence comprising a region amino-terminally adjacent to epitope 11 (PMKFDAKIDV; epitope) |  | binding to IgE antibodies from patients |
| SEQ ID NO: 426: sequence comprising a region carboxy-terminally adjacent to epitope 11 (LKNLKIETNP; epitope) | binding to IgE antibodies from patients |  |
| SEQ ID NO: 451: sequence comprising a region amino-terminally adjacent to epitope 17 (FVTNLTDSSK; epitope) |  | binding to IgE antibodies from patients |
| SEQ ID NO: 452: sequence comprising a region amino-terminally adjacent to epitope 17 (TNLTDSSKWK; epitope) |  | binding to IgE antibodies from patients |
| SEQ ID NO: 462: sequence comprising a region amino-terminally adjacent to epitope 19 (NKIKTFNE; epitope) |  | binding to IgE antibodies from patients |
| SEQ ID NO: 465: sequence comprising a region carboxy-terminally adjacent to epitope 19 (VKFNYSMPAN; epitope) | binding to IgE antibodies from patients |  |
| SEQ ID NO: 466: sequence comprising a region carboxy-terminally adjacent to epitope 19 (FNYSMPANCY; epitope) | binding to IgE antibodies from patients |  |
| SEQ ID NO: 471: sequence comprising a region amino-terminally adjacent to epitope 20 (GEATNLKAIN; epitope) |  | binding to IgE antibodies from patients |
| SEQ ID NO: 476: sequence comprising a region carboxy-terminally adjacent to epitope 20 (AINIKIGSHE; epitope) | binding to IgE antibodies from patients |  |
| SEQ ID NO: 479: sequence comprising a region amino-terminally adjacent to epitope 20 (KSAGEATNLK; epitope) |  | binding to IgE antibodies from patients |
| SEQ ID NO: 480: sequence comprising a region amino-terminally adjacent to epitope 20 (AGEATNLKAI; epitope) |  | binding to IgE antibodies from patients |

Same assay, conditions: procedures (B) overlapping and (C) alanine scanning

| Substance | region within the epitope important for binding to IgE antibodies from patients |
| --- | --- |
| SEQ ID NO: 397: region in epitope 8 (KALQGWKELP; epitope) | important for binding |
| SEQ ID NO: 400: region in epitope 8 (GWKELPTETP; epitope) | important for binding |
| SEQ ID NO: 407: region in epitope 9 (ELLQQ; epitope) | important for binding |
| SEQ ID NO: 412: region in epitope 10 (MKTVVEPA; epitope) | important for binding |
| SEQ ID NO: 414: region in epitope 10 (ADRNA; epitope) | important for binding |
| SEQ ID NO: 419: region in epitope 11 (DVKLKNLK; epitope) | important for binding |
| SEQ ID NO: 425: region in epitope 11 (DVKLKNLKI; epitope) | important for binding |
| SEQ ID NO: 430: region in epitope 14 (PSKKGNTVLA; epitope) | important for binding |
| SEQ ID NO: 434: region in epitope 15 (SSSSSNSKS; epitope) | important for binding |
| SEQ ID NO: 436: region in epitope 15 (SSSNSKSSSS; epitope) | important for binding |
| SEQ ID NO: 440: region in epitope 15 (SSNSKSS; epitope) | important for binding |
| SEQ ID NO: 444: region in epitope 16 (QEFPKRKLPG; epitope) | important for binding |
| SEQ ID NO: 446: region in epitope 16 (PKRKLPGDRA; epitope) | important for binding |
| SEQ ID NO: 449: region in epitope 16 (RKLPGDRATS; epitope) | important for binding |
| SEQ ID NO: 455: region in epitope 17 (TDSSKWKLCA; epitope) | important for binding |
| SEQ ID NO: 458: region in epitope 17 (KWKLCADAS; epitope) | important for binding |
| SEQ ID NO: 461: region in epitope 19 (KIKTF; epitope) | important for binding |
| SEQ ID NO: 464: region in epitope 19 (FNEVKFNYSM; epitope) | important for binding |
| SEQ ID NO: 470: region in epitope 20 (EATNLKAIN; epitope) | important for binding |
| SEQ ID NO: 473: region in epitope 20 (INIKIGSH; epitope) | important for binding |
| SEQ ID NO: 482: region in epitope 20 (ATNLKAINI; epitope) | important for binding |
| SEQ ID NO: 483: region in epitope 20 (ATNLKAINIK; epitope) | important for binding |

— patent US20230190924A1, “ANTIGEN OF ALLERGY AND EPITOPE THEREOF” (HOYU CO., LTD., priority 2017, published 2023)
